Where a SMILES comes first, the peptide text is derived from it. [ ]: non-standard residue; d: D form. The star is where a group is joined. ξ: configuration not given here. FITC = O=C1OC2(c3ccc(O)cc3Oc3cc(O)ccc32)c2ccc(NC(=S)*)cc21; Phe(4-NO2) = N[C@@H](Cc1ccc([N+](=O)[O-])cc1)C(=O)O; ξAla(4-thiazolyl) = NC(Cc1cscn1)C(=O)O; pS = N[C@@H](COP(=O)(O)O)C(=O)O; β3hS = N[C@@H](CO)CC(=O)O; βAla = NCCC(=O)O
Molecular target: T1, 14-3-3γ/ChREBP (Homo sapiens, UniProt P61981+Q9NP71)
T1 construct: made in house; host or cells: E. coli NiCo21 (DE3) for 14-3-3 gamma; ChREBP is a synthetic peptide
T1 sequence (P61981 1-247): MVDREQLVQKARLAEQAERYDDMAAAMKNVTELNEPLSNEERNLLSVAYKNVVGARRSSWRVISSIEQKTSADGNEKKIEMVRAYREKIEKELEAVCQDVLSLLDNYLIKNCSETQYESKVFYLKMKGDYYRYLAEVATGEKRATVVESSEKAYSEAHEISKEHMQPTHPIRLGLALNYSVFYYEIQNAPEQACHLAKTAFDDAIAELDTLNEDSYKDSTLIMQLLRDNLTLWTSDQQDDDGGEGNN
T1 sequence (Q9NP71 118-142 partner limits assumed): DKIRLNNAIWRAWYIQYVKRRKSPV
Assay: FA ChREBP titration to FITC-labelled peptide with or without 14-3-3 (ternary complex formation)
Assay type: binding
Settings: for ternary complex formation (anisotropy) on ChREBP titration in presence of 14-3-3γ: ChREBP titrated to preformed complex of 14-3-3γ and FITC-labelled peptide, Fig. 5d
Description: performed twice per cycle with 20% v/v piperidine in N,N-dimethylformamide (DMF) for five minutes.
Fmoc-protected amino acids were mixed with 9 equivalents HBTU (0.38 M in DMF) and 15 equivalents of DIPEA, and coupled to the resin for 30 minutes (except pS, which is coupled for 60 minutes).
Peptides 1 and 2e-i were labeled with fluorescein via a 5-(-fluorenylmehyloxycarbonyl-amino)-3-oxapentanoic acid (O1-Pen) linker using 5 equivalents of FITC and 7.5 equivalents of DIPEA reacting overnight with continuous agitation. Removal of protecting groups and cleavage of the resin was performed by incubation in a mixture of trifluoroacetic acid (TFA), H2O, and triisopropylsilane (TIS) (96.5:2.5:1) for 2 hours with continuous agitation, followed by precipitation in an excess of ice-cold […]
Peptides 1 and 2a-d were FITC labeled via a three-step approach. The free amine on the N-terminus was protected as follows: to a solution of di-tert-butyl decarbonate (10 eq, 400 mM) in DCM was added DIEA (10 eq), and solution was added to the resin. Coupling was allowed to proceed for 1 h. At this time, resin was washed 3x with DCM and coupling was repeated as described. […]
All peptides were purified using preparative HP-LC. […] The purity of the samples was assessed using a UV detector at 254 […]
Fluorescence anisotropy (FA) - binary binding studies: 14-3-3γ was titrated in a 2-fold dilution series (starting at 100 or 400 µM 14-3-3γ) to 10 nM of fluorescein-labeled peptide in FA buffer (10 mM HEPES pH 7.4, 150 mM NaCl, 0.1% (v/v) Tween20, 0.1% (w/v) BSA). […]
Measurements were performed directly after plate preparation, using a Tecan Infinite F500 plate reader at room temperature (lex: 485 ± 20 nm; lem: 535 ± 25 nm; mirror: Dichroic 510; flashes: 20; integration time: 50 ms; settle time: 0 ms; gain: optimal; and Z-position: calculated from well). […] All data were analyzed using GraphPad Prism (7.00) for Windows and fitted using a four-parameter logistic model (4PL). Each measurement was performed in three independent experiments, average and standard deviations were calculated in Excel […]

SMILES | ternary complex formation (anisotropy) on ChREBP titration in presence of 14-3-3γ | increase in anisotropy on ChREBP titration to FITC-labelled peptide alone (no 14-3-3 present, Fig. 5e)
C[C@H](NC(=O)[C@H](CCCCN)NC(=O)[C@H](Cc1ccc([N+](=O)[O-])cc1)NC(=O)CCNC(=O)C[C@H](CO)NC(=O)[C@H](Cc1ccc([N+](=O)[O-])cc1)NC(=O)[C@H](COP(=O)(O)O)NC(=O)C(N)Cc1cscn1)C(=O)N[C@@H](CCCCNC(=S)Nc1ccc2c(c1)C(=O)OC21c2ccc(O)cc2Oc2cc(O)ccc21)C(N)=O (stereo partly drawn) [2c] (H-[ξAla(4-thiazolyl)][pS][Phe(4-NO2)][β3hS][βAla][Phe(4-NO2)]KAK(FITC)-NH2) | lack of increase in anisotropy values | 
C[C@H](NC(=O)[C@H](CCCCN)NC(=O)[C@H](Cc1ccc([N+](=O)[O-])cc1)NC(=O)CCNC(=O)C[C@H](CO)NC(=O)[C@H](Cc1ccc([N+](=O)[O-])cc1)NC(=O)[C@@H](N)COP(=O)(O)O)C(=O)N[C@@H](CCCCNC(=S)Nc1ccc2c(c1)C(=O)OC21c2ccc(O)cc2Oc2cc(O)ccc21)C(N)=O [2d] (H-[pS][Phe(4-NO2)][β3hS][βAla][Phe(4-NO2)]KAK(FITC)-NH2) | dose-dependent increase in 14-3-3/ChREBP/2d complex formation | not observed
